Where “and” joins values, the source holds several entries; their conditions need not be identical. Equal values may be shown once.
Experiments:
healthy adult volunteers = experiment: Multiple ascending dose study NP10679-102, safety and tolerability; type: in vivo, human; conditions: MAD; for TEAE: Contusion / TEAE: Dizziness / TEAE: Dysgeusia / TEAE: Erythema / TEAE: Fatigue / TEAE: Head injury / TEAE: Headache / TEAE: Nausea / TEAE: Pain / TEAE: Peripheral swelling / TEAE: Phlebitis / TEAE: Somnolence / TEAE: Syncope / TEAE: Vision blurred / Subjects with at least one TEAE / TEAE, system organ class: Blood and lymphatic system disorders / TEAE, system organ class: Eye disorders / TEAE, system organ class: Gastrointestinal disorders / TEAE, system organ class: General disorders and administration site conditions / TEAE, system organ class: Injury, poisoning and procedural complications / TEAE, system organ class: Investigations / TEAE, system organ class: Musculoskeletal and connective tissue disorders / TEAE, system organ class: Nervous system disorders / TEAE, system organ class: Skin and subcutaneous tissue disorders / TEAE, system organ class: Vascular disorders / TEAE: Anaemia / TEAE: Asthenia / TEAE: Back pain / TEAE: Blood pressure diastolic decreased: N = 6
[1] = system: murine MCAO model of ischemic brain injury; conditions: cited from earlier work
rats and dogs = experiment: Repeat-dose toxicity studies of up to 14 days; type: in vivo; conditions: repeat-dose toxicity studies up to 14 days, dose-limiting effect in both species

In the case of `O=C1CCc2cc(OC[C@H](O)CN3CCN(c4ccc(C(F)(F)F)cc4)CC3)ccc2N1` [NP10679, (R)-6-(2-Hydroxy-3-(4-(4-(trifluoromethyl)phenyl)piperazin-1-yl)propoxy)-3,4-dihydroquinolin-2(1H)-one], the “TEAE: Contusion” value (healthy adult volunteers; 25 mg IV once daily x 5 days) is reported as 2 (33.3%) n (%), the “TEAE: Dizziness” value (healthy adult volunteers; 25 mg IV once daily x 5 days) is reported as 0 n (%) and the “TEAE: Dysgeusia” value (healthy adult volunteers; 25 mg IV once daily x 5 days) is reported as 1 (16.7%) n (%). The “TEAE: Erythema” value (healthy adult volunteers; 25 mg IV once daily x 5 days) was 0 n (%), the “TEAE: Fatigue” value (healthy adult volunteers; 25 mg IV once daily x 5 days) was 1 (16.7%) n (%) and the “TEAE: Head injury” value (healthy adult volunteers; 25 mg IV once daily x 5 days) was 0 n (%). The “TEAE: Headache” value (healthy adult volunteers; 25 mg IV once daily x 5 days) was 2 (33.3%) n (%), the “TEAE: Nausea” value (healthy adult volunteers; 25 mg IV once daily x 5 days) was 0 n (%) and the “TEAE: Pain” value (healthy adult volunteers; 25 mg IV once daily x 5 days) was 0 n (%). The “TEAE: Peripheral swelling” value (healthy adult volunteers; 25 mg IV once daily x 5 days) was 0 n (%), the “TEAE: Phlebitis” value (healthy adult volunteers; 25 mg IV once daily x 5 days) was 0 n (%) and the “TEAE: Somnolence” value (healthy adult volunteers; 25 mg IV once daily x 5 days) was 0 n (%). The “TEAE: Syncope” value (healthy adult volunteers; 25 mg IV once daily x 5 days) was 0 n (%), the “TEAE: Vision blurred” value (healthy adult volunteers; 25 mg IV once daily x 5 days) was 0 n (%) and the “Subjects with at least one TEAE” value (healthy adult volunteers; 50 mg IV once daily x 5 days) was 3 (50.0%) n (%). The “TEAE, system organ class: Blood and lymphatic system disorders” value (healthy adult volunteers; 50 mg IV once daily x 5 days) was 0 n (%), the “TEAE, system organ class: Eye disorders” value (healthy adult volunteers; 50 mg IV once daily x 5 days) was 0 n (%) and the “TEAE, system organ class: Gastrointestinal disorders” value (healthy adult volunteers; 50 mg IV once daily x 5 days) was 0 n (%). The “TEAE, system organ class: General disorders and administration site conditions” value (healthy adult volunteers; 50 mg IV once daily x 5 days) was 2 (33.3%) n (%), the “TEAE, system organ class: Injury, poisoning and procedural complications” value (healthy adult volunteers; 50 mg IV once daily x 5 days) was 1 (16.7%) n (%) and the “TEAE, system organ class: Investigations” value (healthy adult volunteers; 50 mg IV once daily x 5 days) was 0 n (%). The “TEAE, system organ class: Musculoskeletal and connective tissue disorders” value (healthy adult volunteers; 50 mg IV once daily x 5 days) was 0 n (%), the “TEAE, system organ class: Nervous system disorders” value (healthy adult volunteers; 50 mg IV once daily x 5 days) was 3 (50.0%) n (%) and the “TEAE, system organ class: Skin and subcutaneous tissue disorders” value (healthy adult volunteers; 50 mg IV once daily x 5 days) was 1 (16.7%) n (%). For the same compound, the “TEAE, system organ class: Vascular disorders” value (healthy adult volunteers; 50 mg IV once daily x 5 days) was 0 n (%), the “TEAE: Anaemia” value (healthy adult volunteers; 50 mg IV once daily x 5 days) was 0 n (%) and the “TEAE: Asthenia” value (healthy adult volunteers; 50 mg IV once daily x 5 days) was 0 n (%). For the same compound, the “TEAE: Back pain” value (healthy adult volunteers; 50 mg IV once daily x 5 days) was 0 n (%), the “TEAE: Blood pressure diastolic decreased” value (healthy adult volunteers; 50 mg IV once daily x 5 days) was 0 n (%) and the “TEAE: Contusion” value (healthy adult volunteers; 50 mg IV once daily x 5 days) was 1 (16.7%) n (%). For the same compound, the “TEAE: Dizziness” value (healthy adult volunteers; 50 mg IV once daily x 5 days) was 0 n (%), the “TEAE: Dysgeusia” value (healthy adult volunteers; 50 mg IV once daily x 5 days) was 0 n (%) and the “TEAE: Erythema” value (healthy adult volunteers; 50 mg IV once daily x 5 days) was 1 (16.7%) n (%). The “TEAE: Fatigue” value (healthy adult volunteers; 50 mg IV once daily x 5 days) was 1 (16.7%) n (%), the “TEAE: Head injury” value (healthy adult volunteers; 50 mg IV once daily x 5 days) was 0 n (%) and the “TEAE: Headache” value (healthy adult volunteers; 50 mg IV once daily x 5 days) was 0 n (%). The “TEAE: Nausea” value (healthy adult volunteers; 50 mg IV once daily x 5 days) was 0 n (%), the “TEAE: Pain” value (healthy adult volunteers; 50 mg IV once daily x 5 days) was 1 (16.7%) n (%) and the “TEAE: Peripheral swelling” value (healthy adult volunteers; 50 mg IV once daily x 5 days) was 1 (16.7%) n (%). For the same compound, the “TEAE: Phlebitis” value (healthy adult volunteers; 50 mg IV once daily x 5 days) was 0 n (%), the “TEAE: Somnolence” value (healthy adult volunteers; 50 mg IV once daily x 5 days) was 3 n (%) and 3 (50.0%) n (%) and the “TEAE: Syncope” value (healthy adult volunteers; 50 mg IV once daily x 5 days) was 0 n (%). For the same compound, the “TEAE: Vision blurred” value (healthy adult volunteers; 50 mg IV once daily x 5 days) was 0 n (%), the “Subjects with at least one TEAE” value (healthy adult volunteers; 100 mg IV once daily x 5 days) was 6 (100%) n (%) and the “TEAE, system organ class: Blood and lymphatic system disorders” value (healthy adult volunteers; 100 mg IV once daily x 5 days) was 1 (16.7%) n (%). The “TEAE, system organ class: Eye disorders” value (healthy adult volunteers; 100 mg IV once daily x 5 days) was 0 n (%), the “TEAE, system organ class: Gastrointestinal disorders” value (healthy adult volunteers; 100 mg IV once daily x 5 days) was 1 (16.7%) n (%) and the “TEAE, system organ class: General disorders and administration site conditions” value (healthy adult volunteers; 100 mg IV once daily x 5 days) was 1 (16.7%) n (%). For the same compound, the “TEAE, system organ class: Injury, poisoning and procedural complications” value (healthy adult volunteers; 100 mg IV once daily x 5 days) was 1 (16.7%) n (%), the “TEAE, system organ class: Investigations” value (healthy adult volunteers; 100 mg IV once daily x 5 days) was 0 n (%) and the “TEAE, system organ class: Musculoskeletal and connective tissue disorders” value (healthy adult volunteers; 100 mg IV once daily x 5 days) was 0 n (%). The “TEAE, system organ class: Nervous system disorders” value (healthy adult volunteers; 100 mg IV once daily x 5 days) was 4 (66.7%) n (%), the “TEAE, system organ class: Skin and subcutaneous tissue disorders” value (healthy adult volunteers; 100 mg IV once daily x 5 days) was 0 n (%) and the “TEAE, system organ class: Vascular disorders” value (healthy adult volunteers; 100 mg IV once daily x 5 days) was 1 (16.7%) n (%). For the same compound, the “TEAE: Anaemia” value (healthy adult volunteers; 100 mg IV once daily x 5 days) was 1 (16.7%) n (%), the “TEAE: Asthenia” value (healthy adult volunteers; 100 mg IV once daily x 5 days) was 1 (16.7%) n (%) and the “TEAE: Back pain” value (healthy adult volunteers; 100 mg IV once daily x 5 days) was 0 n (%). For the same compound, the “TEAE: Blood pressure diastolic decreased” value (healthy adult volunteers; 100 mg IV once daily x 5 days) was 0 n (%), the “TEAE: Contusion” value (healthy adult volunteers; 100 mg IV once daily x 5 days) was 0 n (%) and the “TEAE: Dizziness” value (healthy adult volunteers; 100 mg IV once daily x 5 days) was 0 n (%). The “TEAE: Dysgeusia” value (healthy adult volunteers; 100 mg IV once daily x 5 days) was 0 n (%), the “TEAE: Erythema” value (healthy adult volunteers; 100 mg IV once daily x 5 days) was 0 n (%) and the “TEAE: Fatigue” value (healthy adult volunteers; 100 mg IV once daily x 5 days) was 0 n (%). The “TEAE: Head injury” value (healthy adult volunteers; 100 mg IV once daily x 5 days) was 1 (16.7%) n (%), the “TEAE: Headache” value (healthy adult volunteers; 100 mg IV once daily x 5 days) was 2 (33.3%) n (%) and the “TEAE: Nausea” value (healthy adult volunteers; 100 mg IV once daily x 5 days) was 1 (16.7%) n (%). For the same compound, the “TEAE: Pain” value (healthy adult volunteers; 100 mg IV once daily x 5 days) was 1 (16.7%) n (%), the “TEAE: Peripheral swelling” value (healthy adult volunteers; 100 mg IV once daily x 5 days) was 0 n (%) and the “TEAE: Phlebitis” value (healthy adult volunteers; 100 mg IV once daily x 5 days) was 1 (16.7%) n (%). The “TEAE: Somnolence” value (healthy adult volunteers; 100 mg IV once daily x 5 days) was 3 n (%) and 3 (50.0%) n (%), the “TEAE: Syncope” value (healthy adult volunteers; 100 mg IV once daily x 5 days) was 1 (16.7%) n (%) and the “TEAE: Vision blurred” value (healthy adult volunteers; 100 mg IV once daily x 5 days) was 0 n (%). The “somnolence upon repeat dosing” value (healthy adult volunteers; 5 days of dosing) was “no signs of increased somnolence”, the “minimum effective dose in the MCAO model” value ([1]; IP, mouse) was 2 mg/kg and the infarct volume ([1]; administered 15 minutes prior to occlusion) was “effective in reducing infarct volume”. The “adverse effect directly related to IV administration” value (rats and dogs) was “sedation”.

From PMC10329973 (Clinical pharmacology in drug development, 2023)
